Measured values from patent US20140335083A1, “METHODS OF TREATMENT AND PREVENTION OF EYE DISEASES” (GLAXO GROUP LIMITED, priority 2011, published 2014).

What was measured:
[1] = test system: spontaneous CNV in JR5558 mice; assay: JR5558 spontaneous CNV model, quantitative immunohistochemistry (isolectin B4 whole-mount); assay type: in vivo; conditions: 8 mg/kg BID v Vehicle, 12 days P14-P26
Description: JR5558 mice develop CNV (on an atrophic background) spontaneously with CNV lesions first emerging approximately 12 days after birth. JR5558 mice were intraperitoneally treated with various amounts of a rat anti-mouse VEGF receptor (VEGFR)-2 blocking antibody (MAB4431; R&D systems) or a purified rat non-immune isotype match control IgG2α antibody (R&D systems) starting from P14 for a total of 10 doses in 11 days and CNV development was analyzed by fluorescein angiography (FA) 24 hours after the last dose on P25. For Mice treated with CCR3 inhibitor '994 they were dosed intraperitoneally or by eye drop with various concentrations of the drug starting at P14 for a total of 12 days and CNV development was analyzed by FA 24 hours after the last dose on P26. To study the combination effects of anti-VEGFR2 antibody and CCR3 inhibitor '994, mice were treated intraperitoneally with each material alone or in combination starting from P14 for a total of 10 doses in 11 days and CNV development was analyzed by FA 24 hours after the last dose on P25. […]
When CCR3 inhibitor '994 was dosed BID instead of QD, CCR3 inhibitor '994 also produced a significant effect in limiting both total lesion (see, FIG. 4, Table 5) area and total CNV number (see, FIG. 4, Table 6). […] Eyes were completely washed and then analysed by quantitative immunohistochemistry.

[2] = test system: spontaneous CNV in JR5558 mice; assay: JR5558 spontaneous CNV model, CNV area and number by fluorescein angiography; assay type: in vivo
Description: JR5558 mice develop CNV (on an atrophic background) spontaneously with CNV lesions first emerging approximately 12 days after birth. JR5558 mice were intraperitoneally treated with various amounts of a rat anti-mouse VEGF receptor (VEGFR)-2 blocking antibody (MAB4431; R&D systems) or a purified rat non-immune isotype match control IgG2α antibody (R&D systems) starting from P14 for a total of 10 doses in 11 days and CNV development was analyzed by fluorescein angiography (FA) 24 hours after the last dose on P25. For Mice treated with CCR3 inhibitor '994 they were dosed intraperitoneally or by eye drop with various concentrations of the drug starting at P14 for a total of 12 days and CNV development was analyzed by FA 24 hours after the last dose on P26. To study the combination effects of anti-VEGFR2 antibody and CCR3 inhibitor '994, mice were treated intraperitoneally with each material alone or in combination starting from P14 for a total of 10 doses in 11 days and CNV development was analyzed by FA 24 hours after the last dose on P25. Experiments exploring the effects of VEGF-A and CCR3 antagonists on vascular permeability from established CNV lesions, JR5558 mice utilised dosing for only two days after the development of CNV lesions and were treated with various amounts of the VEGFR-2 antibody or CCR3 inhibitor '994, or in combinations on P24 and P25. Fluorescein Angiography (FA) was performed on P26.
The pupils of mice were dilated with 2.5% tropicamide (Bausch & Lomb, Rochester, N.Y.) and 0.2 ml of 2% fluorescein sodium (Bausch & Lomb) diluted in water was administered by intraperitoneal injection. A Kowa Genesis-Df fundus camera (Kowa, Tokyo, Japan) was used to obtain fluorescein angiograms at early (90 seconds after fluorescein injection) and late (7 min) phases of dye transit. At the early phase, the vasculature of CNV tissue is clearly defined by the intravascular fluorescein dye. At the late phase, extravascular fluorescein is evident as patches of hyperfluorescence. To quantify the CNV area, Image J program was used to determine the size of each of the hyperfluorescence CNV in each eye with FA images from the early phase. Permeability of each CNV was determined by subtracting the hyper-fluorescent area of early phase (90 second post fluorescein injection) from late phase (7 minutes post fluorescein injection) FA images by using Image J.
JR5558 mice are a strain of mice with an unidentified genetic defect which causes them to develop spontaneous CNV in both retinae with a predictable time course with the first lesions initiating at about post-natal day 12. As such treatment with CCR3 inhibitor '994 was initiated at day 12 and continued for 12 days at which point animals were examined by retinal fluorescence angiography to quantitate the total CNV lesion load and the total number of CNV lesions present in the retinae. Treatment of animals with CCR3 inhibitor '994 led to suppression of both total lesion area (see, FIG. 3, Table 3) and in the total number of CNV lesions present in the retinae (see, FIG. 3, Table 4) when dosed i.p. at either 8 mg/kg QD or 30 mg/kg QD but not when the dose was 2 mg/kg QD.

[3] = 2 mg/kg i.p. QD v Vehicle, 12 days P14-P26, fluorescence angiography
[4] = 8 mg/kg i.p. QD v Vehicle, 12 days P14-P26, fluorescence angiography
[5] = 30 mg/kg i.p. QD v Vehicle, 12 days P14-P26, fluorescence angiography
[6] = eye drop study, 1 mg/ml, 5 ul eye drop to each eye BID v Vehicle, P14-P26
[7] = eye drop study, 8 mg/kg i.p. BID comparator v Vehicle, P14-P26
[8] = eye drop study, 10 mg/ml, 5 ul eye drop to each eye BID v Vehicle, P14-P26

## NC(=O)c1ccc(CNC(=O)NC[C@H]2CN(Cc3ccc(Cl)c(Cl)c3)CCO2)cc1 [CCR3 inhibitor '994, 4-[[[[[[(2s)-4-[(3,4-dichlorophenyl)methyl]-2-morpholinyl]methyl]-amino]carbonyl]-amino]methyl]benzamide]
[1]
  Difference in mean number of CNV lesions per eye: −8.00
  Difference in mean total CNV area per eye: −76632
[2]; [3]
  Difference in mean total CNV area per eye: −0.0065
  Difference in mean total number of CNV lesions per eye: −1.65
[2]; [4]
  Difference in mean total CNV area per eye: −0.0171
  Difference in mean total number of CNV lesions per eye: −5.03
[2]; [5]
  Difference in mean total CNV area per eye: −0.0264
  Difference in mean total number of CNV lesions per eye: −5.20
[2]; BID study (Table 5), 8 mg/kg BID v Vehicle, 12 days P14-P26, fluorescence angiography
  Difference in mean total CNV area per eye: −0.0214
[2]; BID study (Table 6), 8 mg/kg BID v Vehicle, 12 days P14-P26, fluorescence angiography
  Difference in mean number of CNV lesions per eye: −4.63
[2]; combination study, 30 mg/kg QD systemic, compared to vehicle
  effect on CNV lesion area and total occurring CNV lesions: significant reduction in both CNV lesion area and total occurring CNV lesions
[2]; [6]
  Difference in mean total CNV area per eye: −5442.63
  Difference in mean total number of CNV lesions per eye: −2.25
[2]; [7]
  Difference in mean total CNV area per eye: −9853.26
  Difference in mean total number of CNV lesions per eye: 4.95
[2]; [8]
  Difference in mean total CNV area per eye: −8047.55
  Difference in mean total number of CNV lesions per eye: −3.96
